Source: patent publication US8008506B2, “Indazole compounds” (priority 2008, dated 2011)
In brackets after ≈: the same amount, converted by molar mass.

Legend:
[1] = target: T1, human β2 adrenergic receptor (Homo sapiens, UniProt P07550); assay: Test Example 3-B: human β2 adrenergic receptor agonist activity (method of Test Example 1-B); format: cell-based; conditions: for β2 receptor EC50: Table 2, Test Example 3-B; for Emax: read-out: β2 receptor I.A.
T1 construct: expressed in transfected cells; host or cells: CHO (Chinese Hamster Ovary) cells, pcDNA3
T1 sequence (P07550 whole entry): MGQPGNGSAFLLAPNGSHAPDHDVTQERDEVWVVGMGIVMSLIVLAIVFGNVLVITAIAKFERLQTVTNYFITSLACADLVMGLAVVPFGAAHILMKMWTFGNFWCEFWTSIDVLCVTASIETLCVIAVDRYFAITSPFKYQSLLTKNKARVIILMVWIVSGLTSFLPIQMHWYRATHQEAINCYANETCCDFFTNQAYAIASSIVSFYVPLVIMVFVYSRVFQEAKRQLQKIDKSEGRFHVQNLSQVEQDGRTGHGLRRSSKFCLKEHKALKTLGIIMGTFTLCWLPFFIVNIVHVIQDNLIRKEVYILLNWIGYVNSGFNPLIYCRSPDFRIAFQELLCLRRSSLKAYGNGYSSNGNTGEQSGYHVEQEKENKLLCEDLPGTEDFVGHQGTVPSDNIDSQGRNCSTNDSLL
Experimental: [Worded in the source for another target; this target is reported under the same test.] (§1) The measurement of human β3 adrenergic receptor agonist activity is carried out using CHO (Chinese Hamster Ovary) cells transfected with pcDNA3 (manufactured by Invitrogen, Inc.) to which human β3 gene has been inserted. […] This human β3 cDNA fragment is used as a probe, and the full length human β3 gene is obtained from a human genomic library (manufactured by Clontech Laboratories, Inc.). The above cells are cultured in Ham's F-12 medium containing 10% fetal bovine serum and 400 μg/ml geneticin (manufactured by Invitrogen, Inc.). These cells are seeded on a 96-well plate to a concentration of 2×10^4 cells/well, and after being cultured for about 20 hours, the cells are left to stand in 80 μL of serum-free Ham's F-12 medium for 15 minutes. A test compound is initially dissolved in DMSO, and then is diluted stepwise with Ham's F-12 containing 100 mmol/L HEPES and 1 mmol/L isobutylmethylxanthine. 20 μL of the dilution is added to the cells. After the cells are cultured for 30 minutes, the medium is removed. 0.3. ml of the Assay/lysis Buffer included in cAMP-Screen kit (manufactured by Applied Biosystems, Inc.) is added to the cells, and the cells are incubated at 37° C. for 30 minutes. The resulting cell lysate is subjected to quantification of cAMP with the cAMP-Screen kit. […] Measurement of Human β2 Adrenergic Receptor Agonist Activity

[2] = target: T2, human β1 adrenergic receptor (Homo sapiens, UniProt P08588); assay: Test Example 2-B: human β1 adrenergic receptor agonist activity (method of Test Example 1-B); format: cell-based; conditions: for β1 receptor EC50: Table 2, Test Example 2-B; for Emax: read-out: β1 receptor I.A.
T2 construct: expressed in transfected cells; host or cells: CHO (Chinese Hamster Ovary) cells, pcDNA3
T2 sequence (P08588 whole entry): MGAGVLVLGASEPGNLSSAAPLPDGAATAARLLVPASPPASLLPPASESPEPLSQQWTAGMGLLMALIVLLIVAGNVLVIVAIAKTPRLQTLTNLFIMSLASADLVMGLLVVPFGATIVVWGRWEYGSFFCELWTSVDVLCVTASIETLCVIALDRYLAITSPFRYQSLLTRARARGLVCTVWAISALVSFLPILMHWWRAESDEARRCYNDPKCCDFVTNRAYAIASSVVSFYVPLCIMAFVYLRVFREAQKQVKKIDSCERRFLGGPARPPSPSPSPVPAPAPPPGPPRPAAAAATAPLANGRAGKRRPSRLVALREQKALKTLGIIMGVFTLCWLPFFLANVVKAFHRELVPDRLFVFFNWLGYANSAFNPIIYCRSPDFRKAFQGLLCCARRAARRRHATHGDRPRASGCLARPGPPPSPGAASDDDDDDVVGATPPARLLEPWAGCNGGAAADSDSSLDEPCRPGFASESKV
Experimental: as §1, with “β1” for “β2”

[3] = Test Example 11: solubility in hydrochloric acid buffer solution at pH 1.2; format: physicochemical; conditions: simulated gastric fluid, thermodynamic from solid; hydrochloric acid buffer solution at pH 1.2, 37° C., one hour, 1 mg/mL nominal
Experimental: Test on Solubility in Hydrochloric Acid Buffer Solution at pH 1.2
A test compound is precisely weighed to 500 μg, and a hydrochloric acid buffer solution at pH 1.2 is added thereto to a concentration of 1 mg/mL. The solution is shaken at 37° C. for one hour. After the shaking, the entire amount of the solution is transferred into a filter tube, and the solution is filtered by centrifugation. The filtrate is analyzed by HPLC, and the solubility of the test compound is determined by dividing the peak area value of the filtrate by the peak area value of the standard solution.
The standard solution is prepared by precisely weighing 500 μg of the test compound, and dissolving the test compound in DMSO to a concentration of 1 mg/mL.
YMC-Pack C18 (4.6 mm×150 mm) (manufactured by YMC Co., Ltd.) is used as a separating column. The detection is performed with UV-254 nm. Elution is carried out at a flow rate of 1 ml/min, using solution A=water [containing 0.1% (v/v) acetic acid] and solution B=acetonitrile as the solvents, under the conditions in which a linear gradient of the solution B is run from 5 to 98% (v/v) from zero minute to 20 minute, subsequently solution B is eluted at 98% up to 25 minute, and the solution B is eluted at 5% from 25.01 minute to […].

[4] = target: T3, human β3 adrenergic receptor (Homo sapiens, UniProt P13945); assay: Test Example 1-B: human β3 adrenergic receptor agonist activity (cAMP-Screen kit, transfected CHO cells, 96-well); format: cell-based; conditions: for Emax: CHO, read-out: β3 receptor I.A.; for EC50: Table 2, Test Example 1-B
T3 construct: the full length human β3 gene is obtained from a human genomic library; expressed in transfected cells; host or cells: CHO (Chinese Hamster Ovary) cells, pcDNA3, geneticin selection
T3 sequence (P13945 whole entry): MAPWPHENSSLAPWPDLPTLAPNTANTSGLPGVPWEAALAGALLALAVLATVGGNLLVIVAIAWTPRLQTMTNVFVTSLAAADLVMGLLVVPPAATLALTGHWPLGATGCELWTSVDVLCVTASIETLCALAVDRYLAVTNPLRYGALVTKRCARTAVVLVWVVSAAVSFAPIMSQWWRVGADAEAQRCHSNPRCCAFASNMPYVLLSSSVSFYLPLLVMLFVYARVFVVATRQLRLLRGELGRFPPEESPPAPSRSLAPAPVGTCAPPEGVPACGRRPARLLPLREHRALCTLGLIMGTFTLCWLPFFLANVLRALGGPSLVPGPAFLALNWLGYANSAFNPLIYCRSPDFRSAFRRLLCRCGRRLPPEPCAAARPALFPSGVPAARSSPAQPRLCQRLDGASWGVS
Experimental: Measurement of Human β3 Adrenergic Receptor Agonist Activity
The measurement of human β3 adrenergic receptor agonist activity is carried out using CHO (Chinese Hamster Ovary) cells transfected with pcDNA3 (manufactured by Invitrogen, Inc.) to which human β3 gene has been inserted. […] This human β3 cDNA fragment is used as a probe, and the full length human β3 gene is obtained from a human genomic library (manufactured by Clontech Laboratories, Inc.). The above cells are cultured in Ham's F-12 medium containing 10% fetal bovine serum and 400 μg/ml geneticin (manufactured by Invitrogen, Inc.). These cells are seeded on a 96-well plate to a concentration of 2×10^4 cells/well, and after being cultured for about 20 hours, the cells are left to stand in 80 μL of serum-free Ham's F-12 medium for 15 minutes. A test compound is initially dissolved in DMSO, and then is diluted stepwise with Ham's F-12 containing 100 mmol/L HEPES and 1 mmol/L isobutylmethylxanthine. 20 μL of the dilution is added to the cells. After the cells are cultured for 30 minutes, the medium is removed. 0.3. ml of the Assay/lysis Buffer included in cAMP-Screen kit (manufactured by Applied Biosystems, Inc.) is added to the cells, and the cells are incubated at 37° C. for 30 minutes. The resulting cell lysate is subjected to quantification of cAMP with the cAMP-Screen kit.

Row | Structure (SMILES) | β2 receptor EC50 [1] | Emax [1] [%] | β1 receptor EC50 [2] | Emax [2] [%] | solubility at 1 h [3] [mg/mL] | Emax [4] [%] | EC50 [4] [µM]
1 | CC(C)c1n[nH]c2cc(OCCNC[C@H](O)c3cccc(NS(C)(=O)=O)c3)ccc12 [Example 1, (R)-N-(3-(1-hydroxy-2-(2-(3-isopropylindazol-6-yloxy)ethylamino)ethyl)phenyl)methanesulfonamide] | a) | 6.7 | a) | 12 | ≥ 1 | 74 | 0.017
2 | CCc1n[nH]c2cc(OCCNC[C@H](O)c3cccc(NS(C)(=O)=O)c3)ccc12 [Example 2, (R)-N-(3-(1-hydroxy-2-(2-(3-ethylindazol-6-yloxy)ethylamino)ethyl)phenyl)methanesulfonamide] | a) | 4.3 | a) | 5.8 | ≥ 1 | 76 | 0.017
3 | CCCc1n[nH]c2cc(OCCNC[C@H](O)c3cccc(NS(C)(=O)=O)c3)ccc12 [Example 3, (R)-N-(3-(1-hydroxy-2-(2-(3-propylindazol-6-yloxy)ethylamino)ethyl)phenyl)methanesulfonamide] | a) | 2 | a) | 1 | – | – | –
4 | CS(=O)(=O)Nc1cccc([C@@H](O)CNCCOc2ccc3c(C(F)(F)F)n[nH]c3c2)c1 [Example 4, (R)-N-(3-(1-hydroxy-2-(2-(3-trifluoromethylindazol-6-yloxy)ethylamino)ethyl)phenyl)methanesulfonamide] | a) | 2.4 | a) | 6.3 | 0.963 (≈ 2100 µM) | 78 | 0.049
5 | CN(C)C(=O)CCc1n[nH]c2cc(OCCNC[C@H](O)c3cccc(NS(C)(=O)=O)c3)ccc12 [Example 5, (R)-3-(6-(2-(2-hydroxy-2-(3-(methylsulfonamido)phenyl)ethylamino)ethoxy)-indazol-3-yl)-N,N-dimethylpropanamide] | a) | 5.4 | – | – | ≥ 1 | – | –
6 | COCc1n[nH]c2cc(OCCNC[C@H](O)c3cccc(NS(C)(=O)=O)c3)ccc12 [Example 6, (R)-N-(3-(1-hydroxy-2-(2-(3-methoxymethylindazol-6-yloxy)ethylamino)ethyl)phenyl)methanesulfonamide] | – | – | – | – | ≥ 1 | – | –
7 | CCc1n[nH]c2cc(OCCNC[C@H](O)c3ccc(F)c(NS(C)(=O)=O)c3)ccc12 [Example 8, (R)-N-(5-(2-(2-(3-ethylindazol-6-yloxy)ethylamino)-1-hydroxyethyl)-2-fluorophenyl)methanesulfonamide] | a) | 11 | a) | 15 | – | 61 | 0.017
8 | CCc1n[nH]c2cc(OCCNC[C@H](O)c3ccc(Cl)c(NS(C)(=O)=O)c3)ccc12 [Example 9, (R)-N-(2-chloro-5-(2-(2-(3-ethylindazol-6-yloxy)ethylamino)-1-hydroxyethyl)phenyl)methanesulfonamide] | a) | 8 | a) | 18 | – | 58 | 0.029
9 | CS(=O)(=O)Nc1cc([C@@H](O)CNCCOc2ccc3c(C(F)(F)F)n[nH]c3c2)ccc1Cl [Example 11, (R)-N-(2-chloro-5-(1-hydroxy-2-(2-(3-(trifluoromethyl)indazol-6-yloxy)ethylamino)ethyl)phenyl)methanesulfonamide] | a) | 5 | a) | 22 | – | 65 | 0.015
10 | COc1n[nH]c2cc(OCCNC[C@H](O)c3cccc(NS(=O)(=O)c4ccccc4)c3)ccc12 [Example 16, (R)-N-(3-(1-hydroxy-2-(2-(3-methoxyindazol-6-yloxy)ethylamino)ethyl)phenyl)benzenesulfonamide] | a) | 3 | a) | 7 | – | 75 | 0.017
